Among the data in ChEMBL document CHEMBL1135754, “Arylsulfonamidothiazoles as a new class of potential antidiabetic drugs. Discovery of potent and selective inhibitors of the 11beta-hydroxysteroid dehydrogenase type 1” (J Med Chem, 2002) are IC50 and NI values, retold here.

The target in assay [1] is T1, 11-beta-hydroxysteroid dehydrogenase 1 (Mus musculus, UniProt P50172). Put plainly: In vitro inhibitory activity against mouse 11 beta hydroxysteroid dehydrogenase type 1 using scintillation proximity assay (SPA). (In a scintillation proximity assay essentially only radioactivity close to the scintillant gives light.)
Assay [2] deals with 11-beta-hydroxysteroid dehydrogenase type 2 (Homo sapiens, UniProt P80365). Put plainly: Ability to convert [3H]cortisol to the tritium labeled cortisone in the presence of human 11 beta hydroxysteroid dehydrogenase type 2.
Sequence of 11-beta-hydroxysteroid dehydrogenase type 2 (P80365 whole entry, looked up): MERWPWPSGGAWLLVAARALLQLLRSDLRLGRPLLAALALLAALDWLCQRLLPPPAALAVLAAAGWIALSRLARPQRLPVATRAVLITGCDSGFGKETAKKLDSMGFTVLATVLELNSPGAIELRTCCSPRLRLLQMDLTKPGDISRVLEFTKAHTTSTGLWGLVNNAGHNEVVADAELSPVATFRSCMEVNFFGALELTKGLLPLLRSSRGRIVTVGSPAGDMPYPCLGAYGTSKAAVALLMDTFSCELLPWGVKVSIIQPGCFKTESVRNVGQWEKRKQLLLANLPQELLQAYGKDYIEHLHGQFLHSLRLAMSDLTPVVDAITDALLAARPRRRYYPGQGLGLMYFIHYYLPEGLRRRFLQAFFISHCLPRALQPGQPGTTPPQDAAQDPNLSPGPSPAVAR
Assay [3] addresses 11-beta-hydroxysteroid dehydrogenase type 2 (Mus musculus) (UniProt P51661). Put plainly: Inhibitory activity against mouse 11 beta hydroxysteroid dehydrogenase type 2 at a concentration of 0.2 mM; NI means no inhibition.
Assay [4] deals with T1, 11-beta-hydroxysteroid dehydrogenase 1. Put plainly: In vitro inhibitory activity against mouse 11 beta hydroxysteroid dehydrogenase type 1 using scintillation proximity assay (SPA).

pIC50: −log10 of the molar value. Activity calls are given as the source filed them. No cut-off for these calls is given here. Some results are limits rather than exact numbers.

Sequence of 11-beta-hydroxysteroid dehydrogenase type 2 (Mus musculus) (P51661 whole entry, looked up): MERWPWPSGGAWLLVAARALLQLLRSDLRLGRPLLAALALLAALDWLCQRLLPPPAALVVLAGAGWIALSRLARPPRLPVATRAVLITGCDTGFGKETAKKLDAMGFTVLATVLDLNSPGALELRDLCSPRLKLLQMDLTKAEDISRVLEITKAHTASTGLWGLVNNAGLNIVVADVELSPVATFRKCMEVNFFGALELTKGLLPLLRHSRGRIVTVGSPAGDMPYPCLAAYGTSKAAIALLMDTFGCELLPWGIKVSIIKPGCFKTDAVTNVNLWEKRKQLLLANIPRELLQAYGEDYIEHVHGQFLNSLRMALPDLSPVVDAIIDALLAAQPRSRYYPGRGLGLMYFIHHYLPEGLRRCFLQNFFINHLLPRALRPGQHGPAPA

Take `Cc1c(Cl)cccc1S(=O)(=O)Nc1nc(CC(=O)N2CCN(C)CC2)cs1`: the pIC50 – broadly, the negative decadic logarithm of the IC50, by convention in mol/L – was […] in assay [1] and less than 5.00 in assay [2]. Besides, in assay [3], the NI entry was “inactive”.

Consider `CCN(CC)C(=O)Cc1csc(NS(=O)(=O)c2cccc(Cl)c2C)n1`, for which the values for the negative-log IC50 (pIC50) in assay [4] and in assay [2] were […] and less than 5.00, respectively.
